Experimental data published in patent US20050014692A1, “Lactate dehydrogenase as a novel target and reagent for diabetes therapy” (priority 2003, published 2005).
Entries after “also recorded” stand apart in the source; their conditions may differ.

Experiments:
[1] = system: glycerol kinase overexpressing 832/13 cells; assay: 13C studies in glycerol kinase overexpressing 832/13 cells (insulin secretion, lactate output, pyruvate cycling); assay type: cell-based, rat
From the text: FIG. 9 depicts the effect of glycerol kinase overexpression in 832/13 cells on insulin excretion, lactate output and pyruvate cycling.
In contrast, pyruvate cycling and lactate output are higher in response to glycerol than to glucose.

832/13 cells = assay: Insulin secretion assay in 832/13 cells (radioimmunoassay); assay type: cell-based, rat
Description: FIG. 3. Stimulation of insulin secretion by lactate, pyruvate, and glucose in 832/13 cells. Confluent, insulin secreting 832/13 cells were stimulated for 2 hours with various concentrations of secretagogues as indicated in the figure, and IS was determined by radioimmunoassay of the cell supernatant.
FIG. 4. The effect of rat LDHA overexpression on glucose, pyruvate, and lactate-stimulated insulin secretion in 832/13 cells. 832/13 cells were treated with adenovirus expressing rat LDHA (AdLDH) and beta-galactosidase (Adbetagal), respectively. The LDH activity in cell extracts was monitored by the decrease in absorbance at 340 nm (insert) and the insulin response to glucose, pyruvate, and lactate was examined by radioimmunoassay.
FIG. 7B. The effect of the LDH inhibitor oxamate on insulin secretion in 832/13 cells. Cells were incubated with ^13C labeled glucose for 4 hours in the presence or absence of oxamate.
FIG. 14. The effect of mitLDHA and LDHA on fuel-mediated IS in the 832/13 cells. The inset depicts the activity of LDH for each experiment.
The cell line 832/13 was created from INS-1 insulinoma β-cells as described earlier (Hohmeier et al. (2000) Diabetes 49:424430). Cells were cultured in RPMI-1640 medium containing 11 mM glucose supplemented with 10% fetal bovine serum, 10 mM HEPES, 2 mM glutamine, 1 mM sodium pyruvate and […] β-mercaptoethanol. Media was routinely changed every second day. […]
Insulin secretion was assayed in HEPES buffered saline solution (HBSS) (114 mM NaCl, 4.7 mM KCl, 1.2 mM KH2PO4, 1.16 mM MgSO4, 20 mM HEPES, 2.5 mM CaCl2, 25.5 mM NaHCO3, pH 7.2 containing 0.2% bovine serum albumin (essentially fatty acid free). Cells were washed in 1 ml of HBSS, preincubated in 1.5 ml of HBSS for 2 hour prior to a 2 hour incubation in the presence of secretagogues as indicated in the figures. The insulin levels were determined by radioimmunoassay with the Coat-A-Count kit (ICN Pharmaceuticals, Costa Mesa, Calif.) and lactate output was determined with a Lactate Reagent kit (Sigma, St. Louis, Mo.) according to protocols outlined by the manufacturer.

[2] = system: cell lines derived from rat INS-1 cells; details: glucose-responsive clones; in direct correlation with changes in pyruvate cycling; cited from earlier work

OCC(O)CO [glycerol]
lactate output, compared with glucose [1]: higher
pyruvate cycling, compared with glucose [1]: higher
stimulation of insulin secretion, compared with glucose [1]: to the same extent

CC(O)C(=O)O (centres unmarked) [lactate]
stimulation of insulin secretion as secretagogue (832/13 cells; 832/13 cells overexpressing LDHA (AdLDH treated)): as effective as the other two fuels; also recorded: as effective as glucose or pyruvate
stimulation of insulin secretion as secretagogue (832/13 cells; 832/13 cells without LDHA overexpression, 2 hours, relative to glucose or pyruvate): poor secretagogue; also recorded: only a weak stimulator
stimulation of insulin secretion as secretagogue (832/13 cells; 832/13 cells without LDHA overexpression, 2 hours, relative to glucose or pyruvate, listed as Lactate): poor secretagogue

O=C(O)Cc1ccccc1 [phenylacetic acid]
effect on glucose-stimulated IS [2]: impaired

malate in the form of methyl ester
effect on glucose-stimulated IS [2]: potentiated
